Test results published in patent US20040076989A1, “Synaptic transmission assay” (priority 2000, published 2004).
Entries after “also recorded” stand apart in the source; their conditions may differ.

Tests used:
[1] = system: zif268 mRNA expression; assay: zif268 mRNA assay (Northern blot) in cultured dissociated hippocampal neurons; type: cell-based; conditions: added to induction medium
Description: The peak in zif268 expression after 30 min established the optimal delay for mRNA-based assays. Similar optimisation of protein-based immunohistochemical assays indicates an optimum 2 h post-exposure delay.
Zif268 mRNA assays were carried out as in Example 2, with cells exposed to ACSF control, to induction medium, or to induction medium with the addition of […] (an inhibitor of MAPK kinase) (FIG. 15) or with the addition of a mixture of the calcium channel blocker cadmium and the glutamate receptor antagonists AP5 and CNQX (FIG. 16).

[2] = system: neuronal zif268 expression; assay: zif268 immunocytochemical assay (zif268/NeuN double-labelled neurons) in dissociated hippocampal neuron culture; type: cell-based, Sprague-Dawley rat; conditions: added to induction medium, 0.2 μM each, 10 min exposure; listed as Carbachol
Description: Hippocampal neurons were prepared from late embryonic or 1st postnatal day Sprague-Dawley rates, and grown in dissociated cell culture in microtitre plates. After 7-21 days in vitro, serum-containing medium was replaced with serum-free medium for 24 h. This medium was then replaced with ACSF or with induction medium for 10 minutes; these solutions were then replaced with serum-free medium. After 1 hour, cells were fixed by replacement of serum-free medium with phosphate-buffered saline containing 4% paraformaldehyde. Immunolabelling was then carried out with rabbit antiserum against zif268 and mouse antibodies against the neuron-specific antigen NeuN. After washing, bound antibodies were visualised by incubation with Alexa488-labelled anti-rabbit IgG and Cy3-labelled anti-mouse IgG (FIG. 12 top).
An immunocytochemical assay was carried out as in Example 3, with cells exposed to ACSF, to induction medium, to induction medium with the addition of carbachol and isoproterenol (0.2 μM each) or to induction medium with the addition of carbachol only (0.2 μM).

SMILES	effect on chemically-induced zif268 mRNA expression [1]	effect on chemically induced increase in neuronal zif268 immunoreactivity [2]
COc1cccc(-c2cc(=O)c3ccccc3o2)c1N [PD98959]	significantly reduced; also recorded: inhibits	
C[N+](C)(C)CCOC(N)=O [carbachol]		no effect
